Patent publication US20230365643A1, “PEPTIDE, AND COSMETIC COMPOSITION AND PHARMACEUTICAL COMPOSITION COMPRISING SAME” (SEOUL NATIONAL UNIVERSITY HOSPITAL, priority 2020, published 2023)
≈ marks a conversion by molar mass, not a printed value. Each block holds one compound with its values, some of them ahead of it. Where a SMILES comes first, the peptide text is derived from it. [ ]: non-standard residue; d: D form.

Key:
[1] = Stability in mouse whole blood (LC-QTOF MS); format: in vitro ADME; conditions: peptide 1 mg/ml; 0, 15, 30, 60, 120 minutes; compared to P5 control (FIG. 3)
Protocol: Mouse whole blood was treated with peptide (1 mg/ml) and reacted for 0, 15, 30, 60, and 120 minutes, followed by analyzing the peptides remaining as LC-QTOF MS.

[2] = Determination of solubility; format: physicochemical
Protocol: To 5 mg of each of the peptides synthesized by the above method, a small amount of water or butylene glycol was added to measure solubility.

C57BL/6 mice = assay: Hair growth promoting efficacy in mice; format: in vivo, mouse; conditions: lower back skin, once a day, after about 4 weeks; P5N 0.1 mM, P5 0.05 and 0.1 mM, MNX 3% (FIG. 11)
From the text: It is known that all the hairs of a mouse go through a process in which the hair enters the resting phase at 7 to 8 weeks of age and is converted back to the growing phase. Accordingly, the effect of the peptide of the present invention on the growth phase inducing process was confirmed using C57BL/6 mice. Specifically, 3% of minoxidil (MNX), which is commonly used as a treatment for hair loss and hair growth, on the skin of the lower back of the mouse, the existing adiponectin-derived peptide […] NO: 2), […] and 0.1 mM), and the present peptide […] NO: 2)-NH2) were applied at 0.1 mM concentration, respectively, once a day. Thereafter, hair growth was investigated. As a result, in the group treated with the peptide of the present invention as in the positive controls, it was confirmed […], after about 4 weeks, a proportion of the region where hair was grown in the growth phase among the region where hair was first removed is increased (FIG. 11).

sensitive skin = assay: Sensitive skin improvement, double-blind application study (lactate test, biopsy); format: in vivo, human; conditions: for proportion of test group improved from sensitive skin to non-sensitive skin: 0.01%, 27 persons per group
From the text: In order to classify patients with sensitive skin, a double-blind organ application study was executed by conducting the lactate puncture test (Contact Dermatitis 2010; 62: 137-49), which is the most widely used and known reliable test for diagnosis of sensitive skin (a total of 54 persons, the peptide of the present invention PSN: GLYYF(SEQ ID NO: 2)-NH2 (APNSN) 0.01% vs control (placebo), 27 persons per application group). From the volunteers who agreed to the biopsy (peptide PSN: GLYYF(SEQ ID NO: 2)-NH2 (APNSN) of the present invention 0.01% vs control material (placebo), 8 persons per application group), the skin tissues at the facial baseline and the skin tissues after 8 weeks application were obtained from total 4 sites (for 2 sites per each) by 2 mm punch. For the obtained skin tissues, quantitative PCR analysis and immunohistochemistry were performed for sensitive skin-related genes and markers including adiponectin. […] Further, at the second visit, it could be seen that 29.6% of the test group was improved from the sensitive skin to the non-sensitive skin. […] There was no significant difference between the above two groups (p=0.327, fisher's exact test). Further, at the 3rd visit, the initial sensitive skin improved to non-sensitive skin in 48.1% of the test group, whereas only 14.8% of the control improved to non-sensitive skin, which is the same as at the 2nd visit. […] Further, since the expression of adiponectin was reduced in the patients having sensitive skin, a change in adiponectin gene expression after APNSN treatment could be an important indicator of sensitivity improvement. Therefore, as a result of confirming the expression of adiponectin, the sub-signaling factor P-AMPK of adiponectin and the sensitivity inducing factor TRPV1 (FIG. 10) through biopsy, the expression adiponectin and P-AMPK was increased after application in the test group containing APNSN, whereas the expression of TRPV1 was decreased. […] On the other hand, there was no statistically significant change in the expression of adiponectin in the control after application of the control material.

[3] = water : butylene glycol mixture, Solvent H2O: BG, mixed solvent
[4] = Solvent BG (butylene glycol), single solvent
[5] = biopsy after application (FIG. 10)

Structure (SMILES): CC(C)C[C@H](N)C(=O)N[C@@H](Cc1ccc(O)cc1)C(=O)N[C@H](Cc1ccc(O)cc1)C(=O)N[C@@H](Cc1ccccc1)C(=O)O [Peptide P4-4, LYyF (SEQ ID NO: 1)] (H-LY[dY]F-OH; N-terminus assumed)
- stability (peptides remaining) [1]: improved stability

Structure (SMILES): CC(C)C[C@@H](N)C(=O)N[C@@H](Cc1ccc(O)cc1)C(=O)N[C@@H](Cc1ccc(O)cc1)C(=O)N[C@@H](Cc1ccccc1)C(N)=O [Peptide P4-6, lYYF (SEQ ID NO: 1)-NH2] (H-[dL]YYF-NH2)
- solubility [2, 3]: 4000 µg/mL (≈ 6.63 mM)

Structure (SMILES): CC(C)C[C@H](N)C(=O)N[C@@H](Cc1ccc(O)cc1)C(=O)N[C@@H](Cc1ccc(O)cc1)C(=O)N[C@H](Cc1ccccc1)C(N)=O [Peptide P4-9, LYYf (SEQ ID NO: 1)-NH2] (H-LYY[dF]-NH2)
- solubility [2, 3]: 4000 µg/mL (≈ 6.63 mM)

Structure (SMILES): CC(C)C[C@H](NC(=O)CN)C(=O)N[C@@H](Cc1ccc(O)cc1)C(=O)N[C@@H](Cc1ccc(O)cc1)C(=O)N[C@@H](Cc1ccccc1)C(=O)O [Peptide P5, GLYYF (SEQ ID NO: 2), reference compound]
- solubility ([2]; ethanol : propylene glycol mixture, Solvent EtOH: PG (propylene glycol), mixed solvent): 1000 µg/mL (≈ 1.51 mM)
- proportion of the region where hair was grown in the growth phase (C57BL/6 mice): increased

Structure (SMILES): CC(C)C[C@H](NC(=O)CN)C(=O)N[C@@H](Cc1ccc(O)cc1)C(=O)N[C@@H](Cc1ccc(O)cc1)C(=O)N[C@@H](Cc1ccccc1)C(N)=O [Peptide P5-5, GLYYF (SEQ ID NO: 2)-NH2]
- stability (peptides remaining) [1]: improved stability
- proportion of test group improved from sensitive skin to non-sensitive skin (sensitive skin; 2nd visit (4 weeks after application)): 29.6%
- proportion of test group improved from sensitive skin to non-sensitive skin (sensitive skin; 3rd visit (8 weeks after application)): 48.1%
- sensitive skin to non-sensitive skin in lactic acid test (sensitive skin; 2nd and 3rd visit (FIG. 9)): significantly improved
- expression of P-AMPK (sensitive skin; [5]): increased
- expression of TRPV1 (sensitive skin; [5]): decreased
- expression of adiponectin (sensitive skin; [5]): increased
- increase of expression of adiponectin compared to before application (sensitive skin; twice a day for 8 weeks, biopsy): more than 4 times
- proportion of the region where hair was grown in the growth phase (C57BL/6 mice): increased

Structure (SMILES): CC(C)C[C@H](NC(=O)CN)C(=O)N[C@@H](Cc1ccc(O)cc1)C(=O)N[C@H](Cc1ccc(O)cc1)C(=O)N[C@@H](Cc1ccccc1)C(N)=O [Peptide P5-8, GLYyF (SEQ ID NO: 2)-NH2]
- solubility [2, 4]: 3000 µg/mL (≈ 4.54 mM)

More lines, now with the values ahead:

- solubility ([2]; water, Solvent H2O, single solvent): 2500 µg/mL (≈ 4.13 mM)
Structure (SMILES): CC(C)C[C@H](N)C(=O)N[C@@H](Cc1ccc(O)cc1)C(=O)N[C@@H](Cc1ccc(O)cc1)C(=O)N[C@H](Cc1ccccc1)C(=O)O [Peptide P4-5, LYYf (SEQ ID NO: 1)] (H-LYY[dF]-OH; N-terminus assumed)

- solubility [2, 4]: 3000 µg/mL (≈ 4.53 mM)
Structure (SMILES): CC(C)C[C@@H](NC(=O)CN)C(=O)N[C@@H](Cc1ccc(O)cc1)C(=O)N[C@@H](Cc1ccc(O)cc1)C(=O)N[C@@H](Cc1ccccc1)C(=O)O [Peptide P5-1, GlYYF (SEQ ID NO: 2)]

- solubility [2, 3]: 3000 µg/mL (≈ 4.53 mM)
Structure (SMILES): CC(C)C[C@H](NC(=O)CN)C(=O)N[C@@H](Cc1ccc(O)cc1)C(=O)N[C@H](Cc1ccc(O)cc1)C(=O)N[C@@H](Cc1ccccc1)C(=O)O [Peptide P5-3, GLYyF (SEQ ID NO: 2)]

- solubility [2, 4]: 3000 µg/mL (≈ 4.53 mM)
Structure (SMILES): CC(C)C[C@H](NC(=O)CN)C(=O)N[C@@H](Cc1ccc(O)cc1)C(=O)N[C@@H](Cc1ccc(O)cc1)C(=O)N[C@H](Cc1ccccc1)C(=O)O [Peptide P5-4, GLYYf (SEQ ID NO: 2)]
